{"source": "patent US20150105252A1", "about": "“SUBSTITUTED PYRAZOLES AS HERBICIDES” (E I DU PONT DE NEMOURS AND COMPANY, priority 2013, published 2015)", "key": {"barnyardgrass [1]": {"tested_on": "barnyardgrass", "assay": "Test A preemergence", "type": "in vivo, Echinochloa crus-galli", "conditions": "preemergence", "method_in_brief": "(§1)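 Seeds were sown in a loam soil–sand blend and given a directed soil spray preemergence; postemergence plants at 2–10 cm, one- to two-leaf stage, were sprayed with compound in non-phytotoxic solvent with surfactant. After about 10 days in a greenhouse, injury was visually rated against untreated controls (0 = no effect, 100 = complete control).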"}, "crabgrass, large [2]": {"tested_on": "crabgrass, large", "assay": "Test A preemergence", "type": "in vivo, Digitaria sanguinalis", "conditions": "preemergence", "method_in_brief": "as §1"}, "morningglory": {"tested_on": "morningglory", "assay": "Test A preemergence", "type": "in vivo, Ipomoea spp.", "conditions": "preemergence", "method_in_brief": "as §1"}, "pigweed [3]": {"tested_on": "pigweed", "assay": "Test A preemergence", "type": "in vivo, Amaranthus retroflexus", "conditions": "preemergence", "method_in_brief": "as §1"}, "velvetleaf [4]": {"tested_on": "velvetleaf", "assay": "Test A preemergence", "type": "in vivo, Abutilon theophrasti", "conditions": "preemergence", "method_in_brief": "as §1"}, "corn [5]": {"tested_on": "corn", "assay": "Test A preemergence", "type": "in vivo, Zea mays", "conditions": "preemergence", "method_in_brief": "as §1"}, "barnyardgrass [6]": {"tested_on": "barnyardgrass", "assay": "Test A postemergence", "type": "in vivo, Echinochloa crus-galli", "method_in_brief": "as §1"}, "crabgrass, large [7]": {"tested_on": "crabgrass, large", "assay": "Test A postemergence", "type": "in vivo, Digitaria sanguinalis", "method_in_brief": "as §1"}, "pigweed [8]": {"tested_on": "pigweed", "assay": "Test A postemergence", "type": "in vivo, Amaranthus retroflexus", "method_in_brief": "as §1"}, "velvetleaf [9]": {"tested_on": "velvetleaf", "assay": "Test A postemergence", "type": "in vivo, Abutilon theophrasti", "method_in_brief": "as §1"}, "rice": {"tested_on": "rice", "assay": "Test B flood", "type": "in vivo, Oryza sativa", "conditions": "250 g ai/ha, visual rating on 0 to 100 scale (0 no effect, 100 complete control), 13 to 15 days", "method_in_brief": "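Plants were grown to the 2-leaf stage, then pots were flooded to 3 cm above the soil and compounds were applied directly into the paddy water. Water depth was held for the whole test; after 13 to 15 days in a greenhouse, injury was visually rated against untreated controls (0 = no effect, 100 = complete control).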"}, "blackgrass": {"tested_on": "blackgrass", "assay": "Test C preemergence", "type": "in vivo, Alopecurus myosuroides", "conditions": "preemergence; for Plant response rating, Blackgrass: 125 g ai/ha, scale 0 to 100, 0 = no effect, 100 = complete control", "method_in_brief": "(§2)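 Postemergence values come from plants sprayed at the 1- to 4-leaf stage (2–18 cm) in peat moss–vermiculite medium; preemergence values from seeds treated in a loam–sand blend. Both evaluated visually against controls after 13–15 greenhouse days, scale 0–100.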"}, "wheat": {"tested_on": "wheat", "assay": "Test C preemergence", "type": "in vivo, Triticum aestivum", "conditions": "preemergence; for Plant response rating, Wheat: 125 g ai/ha, scale 0 to 100, 0 = no effect, 100 = complete control", "method_in_brief": "as §2"}, "corn [10]": {"tested_on": "corn", "assay": "Test C preemergence", "type": "in vivo, Zea mays", "conditions": "preemergence; for Plant response rating, Corn: 125 g ai/ha, scale 0 to 100, 0 = no effect, 100 = complete control", "method_in_brief": "as §2"}, "oilseed rape": {"tested_on": "oilseed rape", "assay": "Test C preemergence", "type": "in vivo, Brassica napus", "conditions": "preemergence; for Plant response rating, Oilseed Rape: 125 g ai/ha, scale 0 to 100, 0 = no effect, 100 = complete control", "method_in_brief": "as §2"}, "[11]": {"conditions": "125 g ai/ha, visual injury, 0 to 100 scale, approx. 10 days"}, "[12]": {"conditions": "500 g ai/ha, visual injury after approx. 10 days, 0 to 100 scale (0 no effect, 100 complete control)"}, "[13]": {"conditions": "Postemergence, 500 g ai/ha, 0 to 100 scale (0 no effect, 100 complete control)"}, "[14]": {"conditions": "postemergence, 125 g ai/ha, about 10 days, visual rating on 0 to 100 scale (0 no effect, 100 complete control)"}, "[15]": {"conditions": "31 g ai/ha, visual rating, scale 0 to 100 (0 no effect, 100 complete control), 13 to 15 days"}, "[16]": {"conditions": "62 g ai/ha, scale 0 to 100 (0 no effect, 100 complete control), 13 to 15 days"}, "[17]": {"conditions": "250 g ai/ha, scale 0 to 100, 0 is no effect, 100 is complete control"}, "[18]": {"conditions": "125 g ai/ha, visual injury approx. 10 days after treatment"}}, "data": [{"smiles": "O=C(NCC(F)(F)F)c1cc(CCCl)n(Cc2ccnc(C(F)(F)F)c2)n1", "note": "[Compound 143]", "values": [{"measurement": "Barnyardgrass plant response rating", "setting": "barnyardgrass [1]; [11]", "result": 90}, {"measurement": "Barnyardgrass plant response rating", "setting": "barnyardgrass [1]; [12]", "result": 100}, {"measurement": "Crabgrass, Large plant response rating", "setting": "crabgrass, large [2]; [11]", "result": 100}, {"measurement": "Crabgrass, Large plant response rating", "setting": "crabgrass, large [2]; [12]", "result": 100}, {"measurement": "Morningglory plant response rating", "setting": "morningglory; [11]", "result": 100}, {"measurement": "Morningglory plant response rating", "setting": "morningglory; [12]", "result": 100}, {"measurement": "Pigweed plant response rating", "setting": "pigweed [3]; [11]", "result": 100}, {"measurement": "Pigweed plant response rating", "setting": "pigweed [3]; [12]", "result": 100}, {"measurement": "Velvetleaf plant response rating", "setting": "velvetleaf [4]; [11]", "result": 50}, {"measurement": "Velvetleaf plant response rating", "setting": "velvetleaf [4]; [12]", "result": 100}, {"measurement": "Corn plant response rating", "setting": "corn [5]; [11]", "result": 50}, {"measurement": "Corn plant response rating", "setting": "corn [5]; [12]", "result": 80}, {"measurement": "Barnyardgrass plant response rating", "setting": "barnyardgrass [6]; [13]", "result": 90}, {"measurement": "Barnyardgrass plant response rating", "setting": "barnyardgrass [6]; [14]", "result": 60}, {"measurement": "Crabgrass, Large plant response rating", "setting": "crabgrass, large [7]; [13]", "result": 90}, {"measurement": "Crabgrass, Large plant response rating", "setting": "crabgrass, large [7]; [14]", "result": 90}, {"measurement": "Pigweed plant response rating", "setting": "pigweed [8]; [13]", "result": 100}, {"measurement": "Pigweed plant response rating", "setting": "pigweed [8]; [14]", "result": 100}, {"measurement": "Velvetleaf plant response rating", "setting": "velvetleaf [9]; [13]", "result": 90}, {"measurement": "Velvetleaf plant response rating", "setting": "velvetleaf [9]; [14]", "result": 80}, {"measurement": "Plant response rating, Rice", "setting": "rice", "result": 25}, {"measurement": "Blackgrass plant response rating", "setting": "blackgrass; [15]", "result": 85}, {"measurement": "Blackgrass plant response rating", "setting": "blackgrass; [16]", "result": 85}, {"measurement": "Plant response rating, Blackgrass", "setting": "blackgrass; 13 to 15 days", "result": 90}, {"measurement": "Blackgrass plant response rating", "setting": "blackgrass; [17]", "result": 90}, {"measurement": "Wheat plant response rating", "setting": "wheat; [15]", "result": 40}, {"measurement": "Wheat plant response rating", "setting": "wheat; [16]", "result": 60}, {"measurement": "Plant response rating, Wheat", "setting": "wheat; 13 to 15 days", "result": 80}, {"measurement": "Wheat plant response rating", "setting": "wheat; [17]", "result": 85}, {"measurement": "Corn plant response rating", "setting": "corn [10]; [15]", "result": 40}, {"measurement": "Corn plant response rating", "setting": "corn [10]; [16]", "result": 75}, {"measurement": "Plant response rating, Corn", "setting": "corn [10]; 13 to 15 days", "result": 90}, {"measurement": "Corn plant response rating", "setting": "corn [10]; [17]", "result": 95}, {"measurement": "Oilseed Rape plant response rating", "setting": "oilseed rape; [15]", "result": 100}, {"measurement": "Oilseed Rape plant response rating", "setting": "oilseed rape; [16]", "result": 100}, {"measurement": "Plant response rating, Oilseed Rape", "setting": "oilseed rape; 13 to 15 days", "result": 95}, {"measurement": "Oilseed Rape plant response rating", "setting": "oilseed rape; [17]", "result": 100}]}, {"smiles": "CCCNC(=O)c1cc(CCCl)n(Cc2ccnc(C(F)(F)F)c2)n1", "note": "[Compound 145]", "values": [{"measurement": "Barnyardgrass plant response rating", "setting": "barnyardgrass [1]; [11]", "result": 90}, {"measurement": "Barnyardgrass plant response rating", "setting": "barnyardgrass [1]; [12]", "result": 100}, {"measurement": "Crabgrass, Large plant response rating (0 to 100 scale)", "setting": "crabgrass, large [2]; [18]", "result": 100}, {"measurement": "Crabgrass, Large plant response rating", "setting": "crabgrass, large [2]; [12]", "result": 100}, {"measurement": "Morningglory plant response rating (0 to 100 scale)", "setting": "morningglory; [18]", "result": 100}, {"measurement": "Morningglory plant response rating", "setting": "morningglory; [12]", "result": 100}, {"measurement": "Pigweed plant response rating (0 to 100 scale)", "setting": "pigweed [3]; [18]", "result": 100}, {"measurement": "Pigweed plant response rating", "setting": "pigweed [3]; [12]", "result": 100}, {"measurement": "Velvetleaf plant response rating (0 to 100 scale)", "setting": "velvetleaf [4]; [18]", "result": 50}, {"measurement": "Velvetleaf plant response rating", "setting": "velvetleaf [4]; [12]", "result": 80}, {"measurement": "Corn plant response rating (0 to 100 scale)", "setting": "corn [5]; [18]", "result": 30}, {"measurement": "Corn plant response rating", "setting": "corn [5]; [12]", "result": 60}, {"measurement": "Barnyardgrass plant response rating", "setting": "barnyardgrass [6]; [13]", "result": 90}, {"measurement": "Barnyardgrass plant response rating", "setting": "barnyardgrass [6]; [14]", "result": 60}, {"measurement": "Crabgrass, Large plant response rating", "setting": "crabgrass, large [7]; [13]", "result": 90}, {"measurement": "Crabgrass, Large plant response rating", "setting": "crabgrass, large [7]; [14]", "result": 90}, {"measurement": "Pigweed plant response rating", "setting": "pigweed [8]; [13]", "result": 100}, {"measurement": "Pigweed plant response rating", "setting": "pigweed [8]; [14]", "result": 100}, {"measurement": "Velvetleaf plant response rating", "setting": "velvetleaf [9]; [13]", "result": 100}, {"measurement": "Velvetleaf plant response rating", "setting": "velvetleaf [9]; [14]", "result": 70}, {"measurement": "Plant response rating, Rice", "setting": "rice", "result": 25}, {"measurement": "Blackgrass plant response rating", "setting": "blackgrass; [15]", "result": 70}, {"measurement": "Blackgrass plant response rating", "setting": "blackgrass; [16]", "result": 85}, {"measurement": "Plant response rating, Blackgrass", "setting": "blackgrass; 13 to 15 days", "result": 90}, {"measurement": "Blackgrass plant response rating", "setting": "blackgrass; [17]", "result": 90}, {"measurement": "Wheat plant response rating", "setting": "wheat; [15]", "result": 5}, {"measurement": "Wheat plant response rating", "setting": "wheat; [16]", "result": 40}, {"measurement": "Plant response rating, Wheat", "setting": "wheat; 13 to 15 days", "result": 50}, {"measurement": "Wheat plant response rating", "setting": "wheat; [17]", "result": 90}, {"measurement": "Corn plant response rating", "setting": "corn [10]; [15]", "result": 10}, {"measurement": "Corn plant response rating", "setting": "corn [10]; [16]", "result": 50}, {"measurement": "Plant response rating, Corn", "setting": "corn [10]; 13 to 15 days", "result": 80}, {"measurement": "Corn plant response rating", "setting": "corn [10]; [17]", "result": 90}, {"measurement": "Oilseed Rape plant response rating", "setting": "oilseed rape; [15]", "result": 60}, {"measurement": "Oilseed Rape plant response rating", "setting": "oilseed rape; [16]", "result": 98}, {"measurement": "Plant response rating, Oilseed Rape", "setting": "oilseed rape; 13 to 15 days", "result": 100}, {"measurement": "Oilseed Rape plant response rating", "setting": "oilseed rape; [17]", "result": 98}]}]}
